Measured values taken from a compilation of properties of binary mixtures (doi:10.1016/j.jct.2016.06.015).

Assay: xn = mol fraction of the nth substance listed
Settings: 100 kPa

CC[n+]1ccn(C)c1.F[B-](F)(F)F + CS(C)=O
viscosity [mPa·s]
Settings | x2 = 0 | x2 = 0.0872 | x2 = 0.2021 | x2 = 0.2931 | x2 = 0.4098 | x2 = 0.4781 | x2 = 0.5718 | x2 = 0.6689 | x2 = 0.7866 | x2 = 0.8959
293.15 K | 50.5 | 43.1 | 35.1 | 29.5 | 22.8 | – | 14.5 | 10.3 | 6.32 | 3.84
298.15 K | 41.5 | 35.5 | 29.1 | 24.6 | – | 16.1 | 12.3 | 8.84 | 5.55 | 3.43
303.15 K | 34.5 | 29.7 | 24.5 | 20.8 | 16.3 | 13.8 | 10.6 | 7.69 | – | 3.09
313.15 K | – | 21.6 | 18 | – | 12.1 | 10.4 | 8.08 | 5.98 | 3.92 | 2.52
323.15 K | 18.6 | 16.3 | 13.7 | 11.8 | 9.43 | 8.09 | 6.37 | 4.78 | 3.21 | 2.13
333.15 K | 14.5 | 12.8 | 10.8 | 9.36 | 7.53 | 6.5 | 5.15 | 3.91 | 2.68 | 1.83
343.15 K | – | 10.3 | 8.73 | – | 6.16 | 5.33 | 4.24 | 3.24 | 2.28 | –
353.15 K | 9.58 | 8.4 | 7.18 | 6.29 | 5.15 | – | 3.59 | 2.77 | 1.97 | 1.42

CC#N + CC[n+]1ccn(C)c1.F[B-](F)(F)F
x1 = 1
Settings | viscosity [mPa·s]
293.15 K | 0.386
298.15 K | 0.37
313.15 K | 0.327
323.15 K | 0.302
333.15 K | 0.281
343.15 K | 0.262

CS(C)=O + CC[n+]1ccn(C)c1.F[B-](F)(F)F
x1 = 1
Settings | viscosity [mPa·s]
293.15 K | 2.21
298.15 K | 2.01
303.15 K | 1.84
313.15 K | 1.56
323.15 K | 1.34
333.15 K | 1.17
343.15 K | 1.03
353.15 K | 0.917

CC[n+]1ccn(C)c1.F[B-](F)(F)F + OCCO
viscosity [mPa·s]
Settings | x2 = 0 | x2 = 0.099 | x2 = 0.2174 | x2 = 0.283 | x2 = 0.4435 | x2 = 0.5237 | x2 = 0.5876 | x2 = 0.6954 | x2 = 0.7916 | x2 = 0.8751
293.15 K | 50.5 | 36.8 | 26.8 | 23.4 | 18 | 16.5 | 15.8 | – | 15 | 15.8
298.15 K | 41.5 | 30.7 | 22.6 | – | – | 13.8 | 13.1 | – | 12.3 | 12.9
303.15 K | – | 25.9 | 19.3 | 16.9 | 12.9 | 11.8 | 11.1 | 10.3 | 10.3 | 10.8
313.15 K | 24.8 | 19.1 | 14.3 | 12.7 | – | 8.77 | 8.22 | 7.56 | 7.43 | 7.71
323.15 K | 18.6 | 14.6 | 11.2 | 9.9 | – | 6.81 | – | 5.77 | 5.6 | 5.74
333.15 K | 14.5 | 11.5 | 8.98 | 7.96 | – | – | 5.05 | 4.55 | 4.37 | –
343.15 K | 11.7 | 9.32 | 7.34 | 6.53 | – | 4.47 | – | 3.69 | 3.51 | 3.5
353.15 K | – | 7.69 | 6.12 | 5.47 | 4.21 | 3.75 | – | – | – | 2.85

C1COCCO1 + CC[n+]1ccn(C)c1.F[B-](F)(F)F
x1 = 1
Settings | viscosity [mPa·s]
293.15 K | 1.29
298.15 K | 1.18
303.15 K | 1.09
313.15 K | 0.934
333.15 K | 0.718
353.15 K | 0.577
